From US12702660B2, “Method for treating cancer with an oral dosage form of an estrogen receptor-alpha inhibitor” (Eisai R&D Management Co., Ltd., priority 2019, dated 2026)
Read-outs that look alike come from different tables or passages of the source.

Experiment: Plasma PK of 450 mg capsules in fasted and fed patients, dose expansion
Type: in vivo, human
Conditions: 450 mg QD capsules; for CLss/F / AUC(0-inf) / Cmax / half-life / AUC(0-t) / Vd / Vd/F: Geometric Mean (GeoCV %); for Tlag / Tmax: Median (Min, Max); for AUC0-24 (per 1 mg of API) / AUC0-inf (per 1 mg of API) / AUC0-t (per 1 mg of API) / Cmax (per 1 mg of API): normalized from Table 13; for AUC(0-inf) / Cmax / half-life / AUC(0-t) / Vd / Vd/F / Tmax: human, plasma, oral, 450 mg; for Vd: read-out: Vss; for Vd/F: read-out: Vz/F
Method: Blood samples were collected at the planned time points from each patient and centrifuged. The plasma portion of each sample was then transferred to a K2EDTA tube, which was then shipped to a bioanalytical lab for concentration measurement using LC-MS/MS. The concentration data were then analyzed using Phoenix® WinNonlin software to obtain PK parameters. The obtained PK parameters were further summarized using analytical software.
Blood samples (approximately 5 mL each) were collected from human patients pre-dose and at various hourly time points post-dose. Plasma concentrations of H3B-6545 were determined using a validated high-performance liquid chromatography/tandem mass spectrometry (LC-MS/MS) method. The lower limit of quantification was 0.100 ng/mL.
The PK Analysis Set included subjects who received H3B-6545 drug product in capsules or tablets and had sufficient evaluable plasma concentration data to derive at least 1 primary PK parameter in each treatment. Plasma concentrations of H3B-6545 (as free base) were tabulated and summarized at each nominal time using descriptive statistics (number of subjects, arithmetic mean with standard deviation [SD], coefficient of variation [CV %], geometric mean, median, minimum, and maximum) as appropriate. Individual and mean (±SD) plasma concentration-time profiles were provided for each treatment.
Pharmacokinetic parameters of H3B-6545 were calculated using noncompartmental methods, using an appropriate model for plasma data and extravascular administration. The PK parameters included, but were not limited to, area under the curve to the time of the last quantifiable concentration (AUC0-t), maximum concentration (Cmax), and time at which the maximum concentration occurred (tmax). If data permitted, the area under the plasma concentration-time curve extrapolated to infinity (AUC0-inf), terminal elimination half-life (t1/2), apparent total body clearance (CL/F), total systemic clearance after oral administration at steady state (CLss/F), apparent volume of distribution during the terminal phase (Vz/F), apparent steady-state volume of distribution (Vss), accumulation ratio for Cmax (RCmax) and accumulation ratio of AUC0-24 (RAUC) were also derived.
Table 3 details PK parameters and profiles of human patients receiving capsules prepared as in Example 1. Patients received a total equivalent dosage of 450 mg of Formula I, as identified in Table 13. Table 14 has normalized the AUC0-t, AUC0-24, AUC0-inf and Cmax PK parameters illustrated in Table 13 to plasma PK parameters per 1 mg of active pharmaceutical ingredient (API).

CN(C)C(=O)/C=C/CNCCOc1ccc(/C(=C(/CC(F)(F)F)c2ccccc2)c2ccc3[nH]nc(F)c3c2)cn1 [H3B-6545, (E)-N,N-dimethyl-4-[2-[5-[(Z)-4,4,4-trifluoro-1-(3-fluoro-1H-indazol-5-yl)-2-phenylbut-1-enyl]pyridin-2-yl]oxyethylamino]but-2-enamide]
CLss/F (Dose Expansion-Fasted): 36.7 (65.4); 18 L/h
Tlag (Dose Expansion-Fasted): 0 (0-0); 18 h
AUC0-24 (per 1 mg of API) (Dose Expansion-Fasted): 27.2 ng·h/mL/mg
AUC0-inf (per 1 mg of API) (Dose Expansion-Fasted): 36.6 ng·h/mL/mg
AUC0-t (per 1 mg of API) (Dose Expansion-Fasted): 27.7 ng·h/mL/mg
Cmax (per 1 mg of API) (Dose Expansion-Fasted): 2.4 ng/mL/mg
CLss/F (Dose Expansion-Fed): 20.5 (42.7); 13 L/h
Tlag (Dose Expansion-Fed): 0 (0-0); 17 h
AUC0-24 (per 1 mg of API) (Dose Expansion-Fed): 43.3 ng·h/mL/mg
AUC0-inf (per 1 mg of API) (Dose Expansion-Fed): 56.8 ng·h/mL/mg
AUC0-t (per 1 mg of API) (Dose Expansion-Fed): 35.8 ng·h/mL/mg
Cmax (per 1 mg of API) (Dose Expansion-Fed): 3.5 ng/mL/mg
AUC(0-inf) (Dose Expansion-Fasted): 16500 ng·h/mL
Cmax (Dose Expansion-Fasted): 1090 ng/mL
half-life (Dose Expansion-Fasted): 10.9 h
AUC(0-t) (Dose Expansion-Fasted, read-out: AUC0-24): 12300 ng·h/mL
AUC(0-t) (Dose Expansion-Fasted, read-out: AUC0-t): 12500 ng·h/mL
Vd (Dose Expansion-Fasted): 597 L
Vd/F (Dose Expansion-Fasted): 566 L
Tmax (Dose Expansion-Fasted): 4 h
AUC(0-inf) (Dose Expansion-Fed): 25500 ng·h/mL
Cmax (Dose Expansion-Fed): 1560 ng/mL
half-life (Dose Expansion-Fed): 8.83 h
AUC(0-t) (Dose Expansion-Fed, read-out: AUC0-24): 19500 ng·h/mL
AUC(0-t) (Dose Expansion-Fed, read-out: AUC0-t): 16100 ng·h/mL
Vd (Dose Expansion-Fed): 350 L
Vd/F (Dose Expansion-Fed): 279 L
Tmax (Dose Expansion-Fed): 6 h
